Test [1] concerns the target Tyrosine-protein kinase JAK1 (Homo sapiens) (UniProt P23458).
Test [2] concerns the target T1, Serine/threonine-protein kinase PLK4 (Homo sapiens) (UniProt O00444).
T1 sequence (whole entry): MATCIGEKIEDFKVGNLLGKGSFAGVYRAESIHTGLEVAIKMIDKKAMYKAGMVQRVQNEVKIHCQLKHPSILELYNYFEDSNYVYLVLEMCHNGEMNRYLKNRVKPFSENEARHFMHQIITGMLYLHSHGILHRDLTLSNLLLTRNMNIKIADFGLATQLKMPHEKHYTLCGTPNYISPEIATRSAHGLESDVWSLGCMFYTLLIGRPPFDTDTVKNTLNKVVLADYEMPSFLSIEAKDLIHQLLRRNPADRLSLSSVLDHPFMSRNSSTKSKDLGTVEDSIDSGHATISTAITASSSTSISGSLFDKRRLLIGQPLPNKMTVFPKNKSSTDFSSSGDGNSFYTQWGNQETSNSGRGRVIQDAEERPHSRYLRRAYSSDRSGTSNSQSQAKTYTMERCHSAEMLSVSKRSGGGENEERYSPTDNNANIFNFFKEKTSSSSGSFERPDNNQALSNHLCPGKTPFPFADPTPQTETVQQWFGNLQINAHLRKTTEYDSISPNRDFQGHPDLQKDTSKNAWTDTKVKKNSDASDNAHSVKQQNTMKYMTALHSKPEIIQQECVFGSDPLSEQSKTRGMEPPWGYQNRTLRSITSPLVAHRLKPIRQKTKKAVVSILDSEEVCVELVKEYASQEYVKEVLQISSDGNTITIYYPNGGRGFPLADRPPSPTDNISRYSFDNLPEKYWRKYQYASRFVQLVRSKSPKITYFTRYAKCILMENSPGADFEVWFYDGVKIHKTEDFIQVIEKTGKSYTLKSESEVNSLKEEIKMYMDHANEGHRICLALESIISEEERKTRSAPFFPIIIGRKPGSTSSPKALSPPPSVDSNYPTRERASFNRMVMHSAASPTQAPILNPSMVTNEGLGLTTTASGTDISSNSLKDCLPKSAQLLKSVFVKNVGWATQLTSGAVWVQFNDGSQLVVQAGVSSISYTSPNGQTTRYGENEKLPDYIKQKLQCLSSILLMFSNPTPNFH

For test [3], the target named is T2, Serine/threonine-protein kinase Nek2 (Homo sapiens) (UniProt P51955).
T2 sequence (whole entry): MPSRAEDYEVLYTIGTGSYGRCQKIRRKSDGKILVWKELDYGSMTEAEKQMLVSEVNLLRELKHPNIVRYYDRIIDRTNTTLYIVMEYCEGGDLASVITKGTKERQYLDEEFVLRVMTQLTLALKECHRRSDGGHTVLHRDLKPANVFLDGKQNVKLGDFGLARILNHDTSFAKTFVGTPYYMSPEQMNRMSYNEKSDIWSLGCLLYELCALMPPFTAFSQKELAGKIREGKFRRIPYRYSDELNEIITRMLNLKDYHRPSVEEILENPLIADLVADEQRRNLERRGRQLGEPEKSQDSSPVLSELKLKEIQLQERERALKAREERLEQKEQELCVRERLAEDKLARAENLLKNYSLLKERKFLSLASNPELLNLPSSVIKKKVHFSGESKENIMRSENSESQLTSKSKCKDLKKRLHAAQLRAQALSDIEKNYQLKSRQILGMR

The target in test [4] is Mitogen-activated protein kinase 11 (Homo sapiens, UniProt Q15759).
In test [5] the target is Serine/threonine-protein kinase PAK 5 (Homo sapiens) (UniProt Q9P286).
Test [6] has as its target T3, 3-phosphoinositide-dependent protein kinase 1 (Homo sapiens) (UniProt O15530).
T3 sequence (whole entry): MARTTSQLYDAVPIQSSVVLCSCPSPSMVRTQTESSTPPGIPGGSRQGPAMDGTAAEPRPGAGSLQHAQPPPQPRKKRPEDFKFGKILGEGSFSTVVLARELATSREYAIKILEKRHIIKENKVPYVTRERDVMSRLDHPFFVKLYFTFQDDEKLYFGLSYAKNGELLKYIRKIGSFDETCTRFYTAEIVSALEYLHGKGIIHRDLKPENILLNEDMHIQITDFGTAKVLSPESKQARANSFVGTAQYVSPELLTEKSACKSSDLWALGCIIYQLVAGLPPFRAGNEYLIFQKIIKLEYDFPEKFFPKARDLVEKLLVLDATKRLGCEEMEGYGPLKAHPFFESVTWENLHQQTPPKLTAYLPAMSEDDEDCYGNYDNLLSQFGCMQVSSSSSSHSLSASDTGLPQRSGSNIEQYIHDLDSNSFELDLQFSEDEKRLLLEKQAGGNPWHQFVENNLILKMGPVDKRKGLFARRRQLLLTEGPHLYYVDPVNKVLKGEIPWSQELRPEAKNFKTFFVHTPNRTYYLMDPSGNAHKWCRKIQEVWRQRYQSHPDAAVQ

Test [7] concerns the target Serine/threonine-protein kinase Chk2 (Homo sapiens, UniProt O96017).
Test [8] deals with Serine/threonine-protein kinase pim-3 (Homo sapiens) (UniProt Q86V86).
The target of test [9] is Serine/threonine-protein kinase PAK 4 (Homo sapiens) (UniProt O96013).
Test [10] deals with T4, Serine/threonine-protein kinase VRK1 (Homo sapiens) (UniProt Q99986).
T4 sequence (whole entry): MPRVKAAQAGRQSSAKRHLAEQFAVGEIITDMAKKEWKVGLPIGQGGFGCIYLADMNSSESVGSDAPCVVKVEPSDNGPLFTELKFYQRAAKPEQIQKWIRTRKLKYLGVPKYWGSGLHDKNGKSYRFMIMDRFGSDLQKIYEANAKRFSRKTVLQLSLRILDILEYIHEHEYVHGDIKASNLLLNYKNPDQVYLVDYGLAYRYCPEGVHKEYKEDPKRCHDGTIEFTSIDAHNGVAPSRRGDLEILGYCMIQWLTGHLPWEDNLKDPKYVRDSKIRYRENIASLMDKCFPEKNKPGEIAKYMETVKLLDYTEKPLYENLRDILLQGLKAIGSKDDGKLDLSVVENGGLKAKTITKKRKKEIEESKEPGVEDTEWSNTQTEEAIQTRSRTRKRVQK

Test [11] concerns the target STE20-like serine/threonine-protein kinase (Homo sapiens) (UniProt Q9H2G2).
For test [12], the target named is cAMP-dependent protein kinase catalytic subunit alpha (Homo sapiens) (UniProt P17612).

Serine/threonine-protein kinase PAK 4 (Homo sapiens), sequence (O96013 whole entry, looked up): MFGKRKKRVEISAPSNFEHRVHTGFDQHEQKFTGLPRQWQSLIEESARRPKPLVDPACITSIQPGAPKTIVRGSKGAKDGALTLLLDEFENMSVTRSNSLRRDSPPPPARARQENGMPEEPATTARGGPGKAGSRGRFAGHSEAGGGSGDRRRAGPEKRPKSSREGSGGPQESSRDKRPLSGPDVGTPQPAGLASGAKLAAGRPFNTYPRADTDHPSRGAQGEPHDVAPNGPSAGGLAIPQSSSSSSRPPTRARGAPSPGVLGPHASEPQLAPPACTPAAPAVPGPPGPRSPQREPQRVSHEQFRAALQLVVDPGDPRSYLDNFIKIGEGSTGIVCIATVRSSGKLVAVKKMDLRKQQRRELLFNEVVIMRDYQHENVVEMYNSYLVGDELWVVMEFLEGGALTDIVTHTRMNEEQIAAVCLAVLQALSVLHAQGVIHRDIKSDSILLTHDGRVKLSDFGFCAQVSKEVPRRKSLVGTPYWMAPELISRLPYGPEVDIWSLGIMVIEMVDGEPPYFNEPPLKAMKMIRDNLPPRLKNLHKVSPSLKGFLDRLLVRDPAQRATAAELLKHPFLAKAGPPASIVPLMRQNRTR
Tyrosine-protein kinase JAK1 (Homo sapiens), sequence (P23458 whole entry): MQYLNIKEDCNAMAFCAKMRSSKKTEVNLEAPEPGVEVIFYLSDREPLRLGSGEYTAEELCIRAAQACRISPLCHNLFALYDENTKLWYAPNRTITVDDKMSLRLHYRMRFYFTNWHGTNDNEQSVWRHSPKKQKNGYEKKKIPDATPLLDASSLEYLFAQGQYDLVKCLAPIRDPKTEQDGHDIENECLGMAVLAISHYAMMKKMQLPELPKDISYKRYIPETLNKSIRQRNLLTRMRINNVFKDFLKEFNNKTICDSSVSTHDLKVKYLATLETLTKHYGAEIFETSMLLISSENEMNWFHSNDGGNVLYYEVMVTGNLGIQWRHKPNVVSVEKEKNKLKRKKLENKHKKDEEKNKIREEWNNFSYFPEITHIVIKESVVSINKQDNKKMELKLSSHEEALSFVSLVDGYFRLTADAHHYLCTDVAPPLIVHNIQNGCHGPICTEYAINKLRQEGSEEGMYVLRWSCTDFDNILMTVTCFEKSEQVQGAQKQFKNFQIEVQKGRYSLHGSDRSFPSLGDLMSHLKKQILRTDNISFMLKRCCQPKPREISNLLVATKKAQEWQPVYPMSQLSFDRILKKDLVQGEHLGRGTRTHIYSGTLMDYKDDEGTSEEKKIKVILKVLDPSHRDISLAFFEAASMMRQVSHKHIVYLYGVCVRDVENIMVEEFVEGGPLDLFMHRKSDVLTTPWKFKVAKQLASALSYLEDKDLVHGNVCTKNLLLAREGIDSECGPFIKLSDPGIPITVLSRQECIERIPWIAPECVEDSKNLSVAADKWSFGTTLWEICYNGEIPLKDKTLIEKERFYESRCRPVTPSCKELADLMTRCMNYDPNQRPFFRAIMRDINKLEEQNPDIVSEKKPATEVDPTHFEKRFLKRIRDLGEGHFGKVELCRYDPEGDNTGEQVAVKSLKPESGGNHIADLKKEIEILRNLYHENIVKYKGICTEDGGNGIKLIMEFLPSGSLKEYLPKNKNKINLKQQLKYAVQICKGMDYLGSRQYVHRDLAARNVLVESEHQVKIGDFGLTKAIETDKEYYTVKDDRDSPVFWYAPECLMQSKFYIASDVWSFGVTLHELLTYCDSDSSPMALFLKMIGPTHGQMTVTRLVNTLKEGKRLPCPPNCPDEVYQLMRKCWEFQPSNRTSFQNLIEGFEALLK
STE20-like serine/threonine-protein kinase (Homo sapiens), sequence (Q9H2G2 whole entry, looked up): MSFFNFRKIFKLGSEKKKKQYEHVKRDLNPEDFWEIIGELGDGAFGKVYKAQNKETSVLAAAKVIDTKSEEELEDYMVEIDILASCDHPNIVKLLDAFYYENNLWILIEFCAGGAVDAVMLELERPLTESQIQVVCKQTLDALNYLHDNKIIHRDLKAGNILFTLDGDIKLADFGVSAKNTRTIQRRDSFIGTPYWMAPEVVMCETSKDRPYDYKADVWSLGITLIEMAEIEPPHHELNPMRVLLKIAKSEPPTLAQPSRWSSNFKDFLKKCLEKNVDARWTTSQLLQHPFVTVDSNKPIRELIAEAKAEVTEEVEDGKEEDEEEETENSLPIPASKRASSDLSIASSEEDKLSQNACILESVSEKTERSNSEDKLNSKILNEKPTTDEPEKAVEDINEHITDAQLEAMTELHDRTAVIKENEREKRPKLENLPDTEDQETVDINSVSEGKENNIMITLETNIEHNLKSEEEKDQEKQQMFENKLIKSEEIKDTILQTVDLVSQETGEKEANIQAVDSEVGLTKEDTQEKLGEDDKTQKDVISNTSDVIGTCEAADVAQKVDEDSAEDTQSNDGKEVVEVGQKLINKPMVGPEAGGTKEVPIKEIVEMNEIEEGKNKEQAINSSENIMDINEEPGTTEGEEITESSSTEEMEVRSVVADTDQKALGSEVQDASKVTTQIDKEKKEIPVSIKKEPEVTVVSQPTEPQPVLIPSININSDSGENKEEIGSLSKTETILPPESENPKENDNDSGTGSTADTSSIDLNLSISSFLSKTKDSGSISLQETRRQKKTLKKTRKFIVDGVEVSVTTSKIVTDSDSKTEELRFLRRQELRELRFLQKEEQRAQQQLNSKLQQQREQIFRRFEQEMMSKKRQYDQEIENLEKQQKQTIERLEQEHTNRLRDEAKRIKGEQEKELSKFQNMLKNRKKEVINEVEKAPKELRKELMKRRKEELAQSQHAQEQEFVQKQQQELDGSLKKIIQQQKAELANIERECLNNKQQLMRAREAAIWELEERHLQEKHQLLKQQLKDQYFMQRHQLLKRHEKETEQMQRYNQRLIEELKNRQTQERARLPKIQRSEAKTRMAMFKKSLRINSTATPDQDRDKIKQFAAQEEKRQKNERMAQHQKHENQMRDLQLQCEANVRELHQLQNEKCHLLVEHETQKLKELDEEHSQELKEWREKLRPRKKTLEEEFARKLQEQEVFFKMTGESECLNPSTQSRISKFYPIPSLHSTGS
Mitogen-activated protein kinase 11, sequence (Q15759 whole entry): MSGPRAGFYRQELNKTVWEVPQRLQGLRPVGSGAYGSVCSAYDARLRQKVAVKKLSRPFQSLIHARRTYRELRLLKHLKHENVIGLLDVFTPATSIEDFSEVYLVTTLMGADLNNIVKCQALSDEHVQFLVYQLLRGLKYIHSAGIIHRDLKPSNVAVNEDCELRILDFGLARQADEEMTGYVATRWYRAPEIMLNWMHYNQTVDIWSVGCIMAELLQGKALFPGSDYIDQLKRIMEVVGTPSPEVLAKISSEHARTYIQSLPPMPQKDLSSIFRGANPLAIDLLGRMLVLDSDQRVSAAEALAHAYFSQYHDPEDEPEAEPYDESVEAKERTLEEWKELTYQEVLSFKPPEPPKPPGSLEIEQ
Serine/threonine-protein kinase Chk2, sequence (O96017 whole entry): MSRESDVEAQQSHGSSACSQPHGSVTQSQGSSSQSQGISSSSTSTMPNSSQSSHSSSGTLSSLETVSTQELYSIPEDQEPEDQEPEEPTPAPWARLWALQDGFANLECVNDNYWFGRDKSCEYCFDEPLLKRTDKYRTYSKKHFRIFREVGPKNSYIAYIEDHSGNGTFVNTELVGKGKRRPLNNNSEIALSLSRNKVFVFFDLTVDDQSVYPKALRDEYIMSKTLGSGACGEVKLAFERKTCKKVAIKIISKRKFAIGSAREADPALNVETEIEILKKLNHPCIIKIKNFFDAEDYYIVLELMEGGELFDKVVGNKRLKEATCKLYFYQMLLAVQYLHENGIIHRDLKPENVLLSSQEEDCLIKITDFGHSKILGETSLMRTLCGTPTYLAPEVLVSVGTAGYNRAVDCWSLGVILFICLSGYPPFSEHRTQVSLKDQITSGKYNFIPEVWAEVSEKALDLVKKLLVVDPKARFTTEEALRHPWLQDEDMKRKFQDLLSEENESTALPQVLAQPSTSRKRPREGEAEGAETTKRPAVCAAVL
Serine/threonine-protein kinase PAK 5 (Homo sapiens), sequence (Q9P286 whole entry, looked up): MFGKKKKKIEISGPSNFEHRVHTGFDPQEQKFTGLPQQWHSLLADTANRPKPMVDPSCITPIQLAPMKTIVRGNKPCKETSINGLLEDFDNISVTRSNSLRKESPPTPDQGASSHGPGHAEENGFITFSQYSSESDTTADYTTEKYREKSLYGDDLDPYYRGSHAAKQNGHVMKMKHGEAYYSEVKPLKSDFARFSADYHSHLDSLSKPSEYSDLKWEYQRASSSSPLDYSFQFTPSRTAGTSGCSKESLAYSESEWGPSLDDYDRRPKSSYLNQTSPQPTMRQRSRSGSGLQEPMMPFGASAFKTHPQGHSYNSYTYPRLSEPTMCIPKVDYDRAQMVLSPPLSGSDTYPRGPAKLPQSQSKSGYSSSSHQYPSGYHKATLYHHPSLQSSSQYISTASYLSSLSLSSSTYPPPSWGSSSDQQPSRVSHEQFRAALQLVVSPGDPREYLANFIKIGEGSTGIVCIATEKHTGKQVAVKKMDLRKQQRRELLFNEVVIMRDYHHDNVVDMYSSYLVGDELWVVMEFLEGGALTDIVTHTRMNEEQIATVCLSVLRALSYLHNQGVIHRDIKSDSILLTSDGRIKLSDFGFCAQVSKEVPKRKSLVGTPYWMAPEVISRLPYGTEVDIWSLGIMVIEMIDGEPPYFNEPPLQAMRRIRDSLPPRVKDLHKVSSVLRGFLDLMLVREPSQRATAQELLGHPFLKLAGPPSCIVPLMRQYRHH

Turning to `Nc1n[nH]c2nc3ccccc3nc12` [QUINOXALINE1], the shift in melting temperature (ΔTm) (as a rule, the shift of the melting midpoint relative to a reference) in test [1] was determined as 2.2 °C; in test [2] it was 1.5 °C; in [3], 1.2 °C; in test [4], 1 °C; in [5], 0.2 °C; in [6], 0.5 °C. Also, the ΔTm is 0.5 °C in test [7]; 1.3 °C in test [8]; -0.3 °C in test [9]; 0.2 °C in test [10]; 2 °C in [11]; 0.6 °C in [12].

Regarding `COc1cc(OC)c(/C=C2\C(=O)Nc3ccccc32)c(OC)c1`, the thermal shift (ΔTm) was 0.5 °C in test [1]; 0.3 °C in test [2]; 0.4 °C in [3]; 0.6 °C in test [4]; -0.3 °C in [5]; -0.1 °C in [6]. Also, the ΔTm was -0.7 °C in test [7]; 1 °C in test [8]; 0.1 °C in test [9]; 0.6 °C in test [10]; 0.1 °C in test [11]; 0.4 °C in [12].

With `O=C1NC(=O)C(c2cn(CCCn3ccnc3)c3ccccc23)=C1Nc1ccccc1`, the ΔTm in test [1] came to 1.1 °C; in test [2], 0.8 °C; in test [3] it was 1.2 °C; in [4], 0 °C; in test [5], 0.1 °C; in [6] it was 0.1 °C. Moreover, the shift in melting temperature (ΔTm) was 1.5 °C in [7]; -0.3 °C in [8]; 0.7 °C in test [9]; 0.6 °C in [10]; 4.8 °C in test [11]; 0.3 °C in test [12].

`O=c1c2ccccc2[nH]c(=S)n1CCN1CCC(=C(c2ccc(F)cc2)c2ccc(F)cc2)CC1` [DIACYLGLYCEROL KINASE INHIBITOR II]: the thermal shift (ΔTm) in test [1] is 0.6 °C; in test [2] it was 0.8 °C; in test [3] it was 1.5 °C; in [4], 1.2 °C; in test [5] it was -0.2 °C; in test [6], 0.6 °C. Besides, the ΔTm is 1.6 °C in [7]; 0.9 °C in [8]; 1.3 °C in [9]; -0.2 °C in test [10]; 2.3 °C in test [11]; 0.8 °C in [12].

As to `O=C1c2ccccc2-[n+]2ccc3c([nH]c4ccccc43)c21` [FASCAPLYSIN CHLORIDE], the ΔTm in [1] was -1.5 °C; in test [2], -0.1 °C; in test [3], -2 °C; in test [4], -1.3 °C; in [5], 0.3 °C; in test [6], -2.7 °C. For the same compound, the ΔTm was 4.9 °C in [7]; 0 °C in test [8]; -0.6 °C in test [9]; -1.2 °C in test [10]; -0.9 °C in [11]; 0.6 °C in test [12].

For `CCOc1cc2ncnc(Nc3cccc(Br)c3)c2cc1OCC`, the ΔTm in test [1] is 2.7 °C; in test [2] it was 3.8 °C; in test [3], 1.1 °C; in [4], 2.2 °C; in [5], 0.4 °C; in [6], -0.9 °C. The ΔTm in [7] amounted to 2.6 °C; in [8], 2.7 °C; in test [9], 0.4 °C; in [10] it was 0 °C; in [11], 7.9 °C; in test [12], 0.8 °C.

`CCOC(=O)c1cnc2oc3ccc(O)cc3c2c1-c1ccccc1`: the shift in melting temperature (ΔTm) in [1] was 8.6 °C; in [2], 2.8 °C; in test [3] it was 0.9 °C; in test [4], -0.6 °C; in test [5], 0.5 °C; in test [6], -0.5 °C. The shift in melting temperature (ΔTm) in [7] was found to be 0.8 °C; in [8] it was 5.2 °C; in [9] it was 0.7 °C; in test [10] it was 0.1 °C; in test [11], 2.3 °C; in test [12], 1.3 °C.

The values above are taken from ChEMBL document CHEMBL1145498, “A systematic interaction map of validated kinase inhibitors with Ser/Thr kinases” (Proc Natl Acad Sci U S A, 2007).
